{"source": "paper PMC12021087", "about": "“RFWD3 Reprograms Nucleotide Metabolism Through PHGDH to Induce Chemoresistance In Osteosarcoma” (Advanced Science, 2025)", "target": "T1, RFWD3 (Ring Finger and WD Repeat Domain 3) (Homo sapiens, UniProt Q6PCD5)", "T1 construct": "endogenous full-length protein in whole lysate of 143B osteosarcoma cells, no tag", "T1 sequence (Q6PCD5 1-774)": "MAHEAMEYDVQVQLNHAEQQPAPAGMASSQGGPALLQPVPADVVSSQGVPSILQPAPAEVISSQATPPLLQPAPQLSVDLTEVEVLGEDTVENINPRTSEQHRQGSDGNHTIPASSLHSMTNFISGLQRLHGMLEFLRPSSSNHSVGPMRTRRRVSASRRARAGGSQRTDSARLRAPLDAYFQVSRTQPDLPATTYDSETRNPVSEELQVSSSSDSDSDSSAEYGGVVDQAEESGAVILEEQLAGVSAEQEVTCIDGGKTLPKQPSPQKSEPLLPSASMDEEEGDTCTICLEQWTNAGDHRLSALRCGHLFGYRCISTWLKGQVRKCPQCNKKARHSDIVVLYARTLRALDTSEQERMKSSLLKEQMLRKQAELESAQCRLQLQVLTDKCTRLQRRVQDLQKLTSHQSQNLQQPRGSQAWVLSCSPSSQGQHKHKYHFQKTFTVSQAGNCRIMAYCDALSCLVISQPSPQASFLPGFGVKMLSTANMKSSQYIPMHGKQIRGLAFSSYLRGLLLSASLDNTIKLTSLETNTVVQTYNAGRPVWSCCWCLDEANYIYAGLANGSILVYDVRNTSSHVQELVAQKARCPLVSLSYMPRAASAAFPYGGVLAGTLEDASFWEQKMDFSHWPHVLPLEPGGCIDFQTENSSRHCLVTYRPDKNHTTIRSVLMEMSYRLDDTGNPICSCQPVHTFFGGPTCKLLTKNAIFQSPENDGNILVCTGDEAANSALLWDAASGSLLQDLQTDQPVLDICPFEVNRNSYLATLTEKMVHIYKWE", "experiment": "CETSA (lysate, Western blot) and DARTS (pronase)", "type": "biochemical", "conditions": "143B cell lysate; CETSA 10 µM lomitapide, 1 h room temperature, heated 5 min; DARTS 1 and 10 µM lomitapide, 4 h, pronase 2 µg/mL", "data": [{"smiles": "O=C(NC1CCN(CCCCC2(C(=O)NCC(F)(F)F)c3ccccc3-c3ccccc32)CC1)c1ccccc1-c1ccc(C(F)(F)F)cc1", "note": "[lomitapide]", "values": [{"measurement": "CETSA (lysate, Western blot) and DARTS (pronase)", "result": "lomitapide protected RFWD3 from pronase degradation and significantly enhanced its thermal stability"}]}]}
